Experimental findings from US20190183910A1, “ENHANCING DNA REPAIR AND PREVENTING AGING AND ITS CONSEQUENCES IN REPRODUCTIVE AND OTHER CELLS” (NEW YORK MEDICAL COLLEGE, priority 2016, published 2019) are described below.

The subject of this assay is mouse sperm. In words: Alkaline comet assay on mouse sperm. The assay is classed as cell-based. The settings on record: for percent tail DNA, alkaline comet: mouse sperm, n=9, mean±SEM. The procedure: Treatment was performed with genotoxic stress (1 mM H2O2), S1P (200 μM), and S1P with genotoxic stress and control in culture for one hour. Also, the use of an ATM inhibitor was utilized (10 μM) (KU-55593, Abcam) (Li et al., 2014). We assessed DNA damage, apoptosis, and chromatin integrity. We also studied the DNA DSB repair gene expression by qRT-PCR in sperm lysates.
Slides were prepared 48 hours prior to experimentation by coating normal glass microscope slides with 500 μl normal melting point agar (0.5% w/v in PBS) solution and left to dry at room temperature for no less than 48 hours. Then, 10 μl of mouse sperm suspension was mixed with 90 μl of 0.5% LMPA. Then this 100 μl solution was added to the NMPA-coated slides. Coverslips were added and slides were placed on a metallic tray on ice and in the dark for 5 minutes. The cover slips were removed and a 90 μl layer of LMPA was added. Cover slips were subsequently replaced before the LMPA hardened. Slides were then kept in the dark on ice again for another 5 minutes. After ten minutes, the cover slips were removed and slides were placed in staining jars containing ice cold lysing solution (2.5 M NaCl, 200 mM NaOH, 100 mM EDTA, 10 mM Trizma Base, 1% Triton X-100 and 10% DMSO [pH 10]) for 1.5 hours at 4° C. in a dark place.
After this lysis step, the slides were washed three times for 5 minutes with TE buffer (pH 8.0), and then placed flatly in the electrophoresis tank face up for 30 minutes to achieve the unwinding of the DNA. The alkaline electrophoresis buffer in this tank included 300 mM NaOH and 1 mM EDTA [pH13]. This incubation period was used to achieve the alkaline unwinding of the DNA. Electrophoresis was then performed at 25 V, 300 mA for 30 minutes. After this, slides were washed twice in neutralization buffer (0.4 M Tris, pH 7.5) for 5 minutes each. Before analysis could occur, the sperm within the slides needed to be fixed by draining the slides well on paper towels and then subjecting them to two 10 minute washes in ethanol, and then air drying at room temperature for 5 minutes. Ethidium bromide (50 μl at 10 μg/ml in water) was then added on the slide, and sealed with a cover slip. Slides were kept moist, wrapped in aluminum foil to prevent light exposure, and stored at 4° C. until analysis (Williams et al., 2014).
Slides from both alkaline and neutral comets were imaged by fluorescence microscopy using a Nikon OPTIPHOT microscope. ImageJ was used for comet assay analysis, which calculated tail length, tail moment, and % of DNA in the tail. […] To analyze the slides, an oval around the sperm head was drawn and calculated and then an oval around the sperm tail was drawn and calculated. […] It was calculated as the Pythagorean distance between two points. […]

Turning to `CCCCCCCCCCCCC/C=C/[C@@H](O)[C@@H](N)COP(=O)(O)O` [S1P, sphingosine 1 phosphate], the “DNA damage, alkaline comet” value (S1P-treated mouse sperm with ATM inhibitor) is “no significant difference”. Also, the “percent tail DNA, alkaline comet” value reads like this: (S1P alone, without ATM inhibitor) 16.79±0.89%; (S1P with H2O2, without ATM inhibitor) 16.8±0.87%.
